# According to patent US11976280B2, “SMAC/Diablo inhibitors useful for treating cancer” (THE NATIONAL INSTITUTE FOR BIOTECHNOLOGY IN THE NEGEV LTD., priority 2017, dated 2024):
# d = 2'-deoxy (DNA); r = 2'-OH (RNA)
# Test system: A549 cells-derived tumors
# Assay: Next-generation sequencing (NGS) of si-NT- and si-hSMAC-A-treated tumors
# Format: in vivo, human
# Description: Libraries were prepared by the INCPM-RNA-seq unit (Weizmann Institute, Israel). Briefly, polyA fraction (mRNA) was purified from 500 ng of total RNA, isolated as above, followed by fragmentation and generation of double stranded cDNA. End repair, a base addition, adapter ligation and PCR amplification steps were performed according to established methods. Libraries were evaluated by Qubit and TapeStation. Sequencing libraries were constructed with barcodes to allow multiplexing of 20 samples in one lane. Between 22 and 26 million reads single-end 60-bp reads were sequenced per sample on Illumina HiSeq 2500 V4 instrument.
# Bioinformatics analyses were carried out at the Bioinformatics Core Facility at the National Institute for Biotechnology in the Negev, Ben-Gurion University. Raw sequence reads were assessed for quality using FASTQC and further trimmed for removal of remaining adaptors and low quality bases using Trimmomatic. The trimmed reads from each sample were separately aligned to the human and mouse genomes (GRCh38 and GRCm38.75, respectively) using STAR v2.3.0 with default settings. An average of 23.7±0.8 million reads per sample was obtained. Of these, an average of 13, 2.6, 7.8 and 0.3 million reads were mapped to human only, mouse only, both human and mouse, and none of them, respectively. After rejection of multi-mapped reads, a total of 11.5±2.5 human-specific, uniquely mapped reads, and 2.3±1.7 mouse-specific, uniquely mapped reads were subjected for further analysis. The number of aligned reads per gene per sample were counted using HTSeq count with “intersection-nonempty” (to handle reads that overlap with more than one gene) and “no stranded” as parameters. The other parameters were set to their default. Normalization and statistical analysis for differential expression were carried out using DESeq2 v1.6.3. Fold change values were converted to linear scale, with a minus sign indicating down-regulation.
# Differentially expressed genes were defined as those having a p-value<0.05, and linear fold change>1.5 and <−1.5. Functional analysis was performed using the Gene Ontology system, DAVID and Expander software tools.
# NGS was used to investigate changes in patterns of gene expression in si-NT-TTs and si-hSMAC-A-TTs (FIG. 10, and Tables 3-5). […] As si-hSMAC is human-specific, any effect on mouse gene expression must be mediated by the human tumor cells.
# The major functional groups were changes were seen are presented below.
# [1] = vs si-NT-TTs, EXTRACELLULAR MATRIX
# [2] = vs si-NT-TTs, EXTRACELLULAR SPACE
# [3] = vs si-NT-TTs, METABOLISM RELATED ENZYMES
# [4] = vs si-NT-TTs, METABOLISM RELATED ENZYMES, listed as si-SMAC
# [5] = vs si-NT-TTs, REDOX STATE REGULATION
substance,measurement,setting,value
"si-hSMAC-A: siRNA to human SMAC/Diablo; sense 5′AAGCGGUGUUUCUCAGAAUUGtt3′ (SEQ ID NO:20), antisense 5′AACAAUUCUGAGAAACCCGCtt3′ (SEQ ID NO:21) (sense AAGCGGUGUUUCUCAGAAUUGTT; antisense AACAAUUCUGAGAAACCCGCTT; sense: sugars from the 5' end r21 d2, backbone not given here; antisense: sugars from the 5' end r20 d2, backbone not given here)",Fold change FBN1,[1],−1.7 fold
same,Fold change GPC6,[1],−1.8 fold
same,Fold change MMP2,[1],−2.9 fold
same,Fold change NLGN2,[1],−1.8 fold
same,Fold change SMOC1,[1],−1.6 fold
same,Fold change TGFBI,[1],−1.9 fold
same,Fold change VCAN,[1],−1.5 fold
same,Fold change VTN,[1],−1.6 fold
same,Fold change CCL24,[2],1.9 fold
same,Fold change CCL28,[2],1.9 fold
same,Fold change CPM,[2],−1.7 fold
same,Fold change CX3CL1,[2],1.6 fold
same,Fold change IGFBP1,[2],−1.6 fold
same,Fold change IGFBP3,[2],−1.8 fold
same,Fold change LGALS3,[2],1.6 fold
same,Fold change MST1,[2],−1.6 fold
same,Fold change PROC,[2],1.8 fold
same,Fold change SPINK1,[2],1.9 fold
same,Fold change SPINT1,[2],1.7 fold
same,Fold change WISP2,[2],−1.7 fold
same,Fold change ACSLA (acyl-CoA synthetase long-chain family member 4),[3],−1.6 fold
same,Fold change ADARB1,[3],−2.1 fold
same,Fold change ADH4,[3],−2.6 fold
same,Fold change ADI1,[3],1.8 fold
same,Fold change AGPAT2,[3],1.6 fold
same,Fold change B3GNT6,[3],2.1 fold
same,Fold change BLVRA,[3],1.7 fold
same,Fold change CAD,[3],−1.6 fold
same,Fold change CDA,[3],2.0 fold
same,Fold change CMAS,[3],1.5 fold
same,Fold change DGAT2,[3],4.9 fold
same,Fold change DGKD,[3],−1.5 fold
same,Fold change DHRS9,[3],2.8 fold
same,Fold change ELOVL3,[3],7.4 fold
same,Fold change ELOVL4,[3],145.2 fold
same,Fold change ENTPD8,[3],2.7 fold
same,Fold change FAR2,[3],4.1 fold
same,Fold change FASN,[3],−1.5 fold
same,Fold change FAXDC2,[3],2.1 fold
same,Fold change FUT3,[3],2.7 fold
same,Fold change FUT6,[3],1.8 fold
same,Fold change GALNT5,[3],1.6 fold
same,Fold change GALNT6,[3],1.9 fold
same,Fold change GALNT12,[3],1.6 fold
same,Fold change GCNT3,[3],1.7 fold
same,Fold change GPT2,[3],1.5 fold
same,Fold change LIPH,[3],1.9 fold
same,Fold change MGAT4B,[3],1.5 fold
same,Fold change ORMDL2,[3],1.5 fold
same,Fold change PADI1,[3],3.8 fold
same,Fold change PCK1,[3],−6.9 fold
same,Fold change PLCB4,[3],1.7 fold
same,Fold change SDR16C5,[3],3.0 fold
same,Fold change ST3GAL4,[3],1.5 fold
same,Fold change ST6GALNAC1,[3],1.6 fold
same,Fold change STARD10,[3],3.7 fold
same,Fold change ELOVL3,[4],7 fold
same,Fold change ELOVL4,[4],145 fold
same,Fold change ANXA10,"vs si-NT-TTs, Mitochondria",−1.7 fold
same,Fold change BIK,"vs si-NT-TTs, Mitochondria",2.1 fold
same,Fold change C10orf2 (TWINK),"vs si-NT-TTs, Mitochondria",−1.9 fold
same,Fold change CHCHD7,"vs si-NT-TTs, Mitochondria",1.6 fold
same,Fold change CPS1,"vs si-NT-TTs, Mitochondria",−4.8 fold
same,Fold change CYP24A1,"vs si-NT-TTs, Mitochondria",−1.9 fold
same,Fold change ENDOG,"vs si-NT-TTs, Mitochondria",1.8 fold
same,Fold change MT-ND4L,"vs si-NT-TTs, Mitochondria",−1.9 fold
same,Fold change MT-ND5,"vs si-NT-TTs, Mitochondria",−1.6 fold
same,Fold change MYO19,"vs si-NT-TTs, Mitochondria",−1.6 fold
same,Fold change STARD13,"vs si-NT-TTs, Mitochondria",−2.2 fold
same,Fold change GSTP1,[5],−1.6 fold
same,Fold change NOS1,[5],−5.9 fold
same,Fold change PXDN,[5],3.3 fold
same,Fold change SOD2,[5],−1.9 fold
same,Fold change TXN,[5],2.1 fold
same,Fold change ANO1,"vs si-NT-TTs, TRANSPORTERS",3.4 fold
same,Fold change ATP10B,"vs si-NT-TTs, TRANSPORTERS",25.5 fold
same,Fold change CRACR2A,"vs si-NT-TTs, TRANSPORTERS",3.2 fold
same,Fold change GLTP,"vs si-NT-TTs, TRANSPORTERS",1.8 fold
same,Fold change KCNK1,"vs si-NT-TTs, TRANSPORTERS",1.7 fold
same,Fold change KCNN4,"vs si-NT-TTs, TRANSPORTERS",1.8 fold
same,Fold change SCNN1A,"vs si-NT-TTs, TRANSPORTERS",1.9 fold
same,Fold change SLC4A4,"vs si-NT-TTs, TRANSPORTERS",−3.3 fold
same,Fold change SLC6A9,"vs si-NT-TTs, TRANSPORTERS",−1.7 fold
same,Fold change SLC24A1,"vs si-NT-TTs, TRANSPORTERS",−1.6 fold
same,Fold change SLC25A37,"vs si-NT-TTs, TRANSPORTERS",−1.5 fold
same,Fold change SLC44A4,"vs si-NT-TTs, TRANSPORTERS",2.2 fold
same,Fold change SLC45A3,"vs si-NT-TTs, TRANSPORTERS",1.8 fold
same,Fold change SLCO2B1,"vs si-NT-TTs, TRANSPORTERS",−2.8 fold
same,Fold change TMC4,"vs si-NT-TTs, TRANSPORTERS",6.3 fold
same,Fold change TMC8,"vs si-NT-TTs, TRANSPORTERS",2.4 fold
same,Fold change ATP10B,"vs si-NT-TTs, TRANSPORTERS, listed as si-SMAC",25 fold
same,number of genes with significant changes,"≥1.5-fold change, adjusted P value<0.05, human and murine",848
